# Target: T1, Recombinant human JAK2 catalytic domain (Homo sapiens, UniProt O60674)
# T1 construct: Recombinant human JAK2 catalytic domain (amino acids 808-1132; catalog number PV4210); GST; purchased Invitrogen PV4210
# Experiment: JAK2 inhibition assay (polyGT substrate / Ulight-JAK1 peptide assay)
# Assay type: biochemical
# Settings: Illustrative Compounds of the invention (Table VII)
# Procedure: Recombinant human JAK2 catalytic domain (amino acids 808-1132; catalog number PV4210) was purchased from Invitrogen. 0.025 mU of JAK2 is incubated with […] polyGT substrate (Sigma catalog number P0275) in kinase reaction buffer (5 mM MOPS pH 7.5, 9 mM MgAc, 0.3 mM EDTA, 0.06% Brij and 0.6 mM DTT, 1 μM non-radioactive ATP, 0.25 μCi ^33P-gamma-ATP (GE Healthcare, catalog number AH9968) final concentrations) with or without 5 μL containing test compound or vehicle (DMSO, 1% final concentration), in a total volume of 25 μL, in a polypropylene 96-well plate (Greiner, V-bottom). After 90 min at 30° C., reactions are stopped by adding of 25 μL/well of 150 mM phosphoric acid. All of the terminated kinase reaction is transferred to prewashed (75 mM phosphoric acid) 96 well filter plates (Perkin Elmer catalog number 6005177) using a cell harvester (Perkin Elmer). Plates are washed 6 times with 300 μL per well of a 75 mM phosphoric acid solution and the bottom of the plates is sealed. 40 μL/well of Microscint-20 is added, the top of the plates is sealed and readout is performed using the Topcount (Perkin Elmer). Kinase activity is calculated by subtracting counts per min (cpm) obtained in the presence of a positive control inhibitor (10 μM staurosporine) from cpm obtained in the presence of vehicle. The ability of a test compound to inhibit this activity is determined as:
# [formula] • RFU test compound=RFU determined for sample with test compound present • RFU control=RFU determined for sample with positive control inhibitor • RFU vehicle=RFU determined in the presence of vehicle
# Dose dilution series are prepared for the compounds enabling the testing of dose-response effects in the JAK2 assay and the calculation of the IC50 for each compound. Each compound is routinely tested at concentration of 20 μM followed by a 1/3 serial dilution, 8 points (20 μM-6.67 μM-2.22 μM-740 nM-247 nM-82 nM-27 nM-9 nM) in a final concentration of 1% DMSO. When potency of compound series increased, more dilutions are prepared and/or the top concentration is lowered (e.g. 5 μM, 1 μM).
# Recombinant human JAK2 (catalytic domain, amino acids 866-1154; catalog number PV4210) was purchased from Invitrogen. 0.0125 mU of JAK2 was incubated with 25 nM Ulight-JAK1 (tyr1023) peptide (Perkin Elmer catalog number TRF0121) in kinase reaction buffer (25 mM HEPES pH7.0, 0.01% Triton X-100, 7.5 mM MgCl2, 2 mM DTT, 7.5 μM ATP) with or without 4 μL containing test compound or vehicle (DMSO, 1% final concentration), in a total volume of 20 μL, in a white 384 Opti plate (Perkin Elmer, catalog number 6007290). After 60 min at room temperature, reactions were stopped by adding 20 μL/well of detection mixture (1× detection buffer (Perkin Elmer, catalog number CR97-100C), 0.5 nM Europium-anti-phosphotyrosine (PT66) (Perkin Elmer, catalog number AD0068), 10 mM EDTA). Readout is performed using the Envision with excitation at 320 nm and measuring emission at 615 nm (Perkin Elmer). Kinase activity was calculated by subtracting relative fluorescence units (RFU) obtained in the presence of a positive control inhibitor (10 μM staurosporine) from RFU obtained in the presence of vehicle. The ability of a test compound to inhibit this activity was determined as: Percentage inhibition=((RFU determined for sample with test compound present−RFU determined for sample with positive control inhibitor) divided by (RFU determined in the presence of vehicle−RFU determined for sample with positive control inhibitor))*100.
# Dose dilution series are prepared for compound enabling the testing of dose-response effects in the JAK2 assay and the calculation of the IC50 for the compound. Each compound is routinely tested at concentration of 20 μM followed by a 1/5 serial dilution, 10 points in a final concentration of 1% DMSO. When potency of compound series increases, more dilutions are prepared and/or the top concentration are lowered (e.g. 5 μM, 1 μM). […]
# T1 sequence (O60674 808-1132): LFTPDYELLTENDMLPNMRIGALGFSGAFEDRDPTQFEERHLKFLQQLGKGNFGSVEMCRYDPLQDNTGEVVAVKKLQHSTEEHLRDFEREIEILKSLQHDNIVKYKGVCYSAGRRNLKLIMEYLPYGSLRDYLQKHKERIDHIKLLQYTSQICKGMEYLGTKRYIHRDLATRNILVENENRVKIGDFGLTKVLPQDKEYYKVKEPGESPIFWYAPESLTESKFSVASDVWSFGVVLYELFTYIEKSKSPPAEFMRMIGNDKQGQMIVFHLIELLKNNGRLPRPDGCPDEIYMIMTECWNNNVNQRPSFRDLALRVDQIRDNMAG
row,Structure (SMILES),IC50
1,"CCc1cc(C#N)cc(F)c1N(C)c1cc(NC(=O)C2CC2)c2ncn(C)c2c1 [Cpd 3, N-(6-((4-cyano-2-ethyl-6-fluorophenyl)(methyl)amino)-1-methyl-1H-benzo[d]imidazol-4-yl)cyclopropanecarboxamide]",0.1 to 50 nM
2,"CCc1cc(C#N)cc(F)c1N(C)c1cc(NC(=O)[C@@H]2C[C@@H]2F)c2ncn(C)c2c1 (racemic) [Cpd 7, N-(6-((4-cyano-2-ethyl-6-fluorophenyl)(methyl)amino)-1-methyl-1H-benzo[d]imidazol-4-yl)-2-fluorocyclopropanecarboxamide (1S,2S)/(1R,2R) racemic mixture]",0.1 to 50 nM
3,"CN(c1cc(NC(=O)[C@H]2C[C@H]2F)c2ncn(C)c2c1)c1ccc(C#N)cc1F [Cpd 15, (1R,2R)-N-[6-(4-cyano-2-fluoro-N-methyl-anilino)-1-methyl-benzimidazol-4-yl]-2-fluoro-cyclopropanecarboxamide]",100 to 500 nM
4,"CN(c1cc(NC(=O)[C@H]2C[C@H]2F)c2ncn(C)c2c1)c1ccc(F)nc1F [Cpd 13, (1R,2R)-N-[6-[(2,6-difluoro-3-pyridyl)-methyl-amino]-1-methyl-benzimidazol-4-yl]-2-fluoro-cyclopropanecarboxamide]",100 to 500 nM
5,"Cc1cnc(C#N)c(F)c1N(C)c1cc(NC(=O)[C@H]2C[C@H]2F)c2ncn(C)c2c1 [Cpd 22, (1R,2R)-N-[6-[(2-cyano-3-fluoro-5-methyl-4-pyridyl)-methyl-amino]-1-methyl-benzimidazol-4-yl]-2-fluoro-cyclopropanecarboxamide]",0.1 to 50 nM
6,"Cc1cc(S(C)(=O)=O)cc(F)c1N(C)c1cc(NC(=O)C2CC2)c2ncn(C)c2c1 [Cpd 19, N-[6-(2-fluoro-N,6-dimethyl-4-methylsulfonyl-anilino)-1-methyl-benzimidazol-4-yl]cyclopropanecarboxamide]",0.1 to 50 nM
7,"CCc1cc(C#N)ncc1N(C)c1cc(NC(=O)C2CC2)c2ncn(C)c2c1 [Cpd 1, N-(6-((6-cyano-4-ethylpyridin-3-yl)(methyl)amino)-1-methyl-1H-benzo[d]imidazol-4-yl)cyclopropanecarboxamide]",0.1 to 50 nM

# Next, values leading:
row,IC50,Structure (SMILES)
1,> 500 nM,"CNc1cc(Oc2cnc(C#N)cc2C)cc2c1ncn2C [Cpd 34, 4-methyl-5-[3-methyl-7-(methylamino)benzimidazol-5-yl]oxy-pyridine-2-carbonitrile]"
2,100 to 500 nM,"CCc1cc(S(C)(=O)=O)ncc1Oc1cc(NC(=O)C2CC2)c2ncn(C)c2c1 [Cpd 29, N-[6-[(4-ethyl-6-methylsulfonyl-3-pyridyl)oxy]-1-methyl-benzimidazol-4-yl]cyclopropanecarboxamide]"
3,> 500 nM,"Cc1cc(C#N)ncc1Oc1cc(N(C)C)c2ncn(C)c2c1 [Cpd 35, 5-[7-(dimethylamino)-3-methyl-benzimidazol-5-yl]oxy-4-methyl-pyridine-2-carbonitrile]"
4,50 to 100 nM,"Cc1cc(C#N)ncc1Oc1cc(NC(=O)C2CC2)c2ncn(C)c2c1 [Cpd 23, N-[6-[(6-cyano-4-methyl-3-pyridyl)oxy]-1-methyl-benzimidazol-4-yl]cyclopropanecarboxamide]"
